Source: PMC8550792, “Evolution of kinase polypharmacology across HSP90 drug discovery” (Cell Chemical Biology, 2021)
Where two headings read alike, the source gives them in different places.

Assays:
Assay in all cases: biochemical
Format in all cases: biochemical
[1] = target: T1, 382 unique human kinases (Homo sapiens, UniProt Q02763, Y1108F); settings: kinase TIE2 (Y1108F); compound 10 uM; read-out: % Enzyme Activity (relative to DMSO controls)
T1 construct: purchased Reaction Biology (HotSpot contract assay)
T1 sequence (Q02763 23-1124 Y1108F): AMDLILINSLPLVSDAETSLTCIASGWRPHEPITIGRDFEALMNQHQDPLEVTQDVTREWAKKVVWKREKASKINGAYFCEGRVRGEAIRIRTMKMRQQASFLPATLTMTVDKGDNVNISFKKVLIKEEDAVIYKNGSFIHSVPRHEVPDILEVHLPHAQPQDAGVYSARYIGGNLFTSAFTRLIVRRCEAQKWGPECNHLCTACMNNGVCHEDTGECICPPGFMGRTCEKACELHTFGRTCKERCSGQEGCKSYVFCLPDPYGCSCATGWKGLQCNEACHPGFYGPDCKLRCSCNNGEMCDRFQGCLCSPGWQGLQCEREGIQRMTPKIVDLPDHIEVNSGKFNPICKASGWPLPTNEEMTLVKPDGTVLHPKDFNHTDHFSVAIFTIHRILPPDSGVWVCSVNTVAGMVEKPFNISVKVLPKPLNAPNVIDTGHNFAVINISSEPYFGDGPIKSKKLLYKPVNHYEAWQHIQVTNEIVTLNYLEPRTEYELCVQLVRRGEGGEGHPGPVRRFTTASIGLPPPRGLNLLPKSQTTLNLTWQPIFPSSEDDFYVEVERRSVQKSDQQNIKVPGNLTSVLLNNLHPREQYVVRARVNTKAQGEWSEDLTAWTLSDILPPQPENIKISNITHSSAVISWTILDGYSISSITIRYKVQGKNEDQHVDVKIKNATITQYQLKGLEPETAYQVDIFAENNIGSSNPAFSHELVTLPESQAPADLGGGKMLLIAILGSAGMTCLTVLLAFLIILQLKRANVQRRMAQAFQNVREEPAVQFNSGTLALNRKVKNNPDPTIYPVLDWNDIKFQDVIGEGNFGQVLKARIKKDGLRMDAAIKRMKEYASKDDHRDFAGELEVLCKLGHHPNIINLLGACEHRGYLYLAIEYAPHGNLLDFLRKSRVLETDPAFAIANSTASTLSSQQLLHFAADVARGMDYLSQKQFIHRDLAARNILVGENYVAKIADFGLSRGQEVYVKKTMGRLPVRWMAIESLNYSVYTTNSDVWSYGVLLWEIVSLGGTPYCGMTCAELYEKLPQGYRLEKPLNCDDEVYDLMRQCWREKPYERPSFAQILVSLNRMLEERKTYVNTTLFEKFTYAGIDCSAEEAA

[2] = target: T2, 382 unique human kinases (Homo sapiens, UniProt Q9UKE5); settings: TNIK; 10 uM; read-out: % Enzyme Activity (relative to DMSO controls)
T2 construct: purchased Reaction Biology (HotSpot contract assay)

[3] = target: T3, 382 unique human kinases (Homo sapiens, UniProt P50750); settings: read-out: % Enzyme Activity (relative to DMSO controls)
T3 construct: purchased Reaction Biology (HotSpot contract assay)
T3 sequence (P50750 whole entry): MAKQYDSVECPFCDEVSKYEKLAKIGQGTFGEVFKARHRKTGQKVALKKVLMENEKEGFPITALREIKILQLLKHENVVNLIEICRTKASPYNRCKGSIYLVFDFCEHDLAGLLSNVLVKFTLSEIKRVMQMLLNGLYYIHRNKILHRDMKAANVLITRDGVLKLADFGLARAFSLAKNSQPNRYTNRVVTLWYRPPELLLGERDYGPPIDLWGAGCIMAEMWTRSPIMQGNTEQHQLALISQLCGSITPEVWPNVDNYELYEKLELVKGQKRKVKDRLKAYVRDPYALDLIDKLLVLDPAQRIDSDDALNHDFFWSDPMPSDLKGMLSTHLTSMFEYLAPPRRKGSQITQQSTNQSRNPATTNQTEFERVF

[4] = target: T4, 382 unique human kinases (Homo sapiens, UniProt P10721, D820E); settings: c-Kit (D820E); 10 uM; read-out: % Enzyme Activity (relative to DMSO controls)
T4 construct: purchased Reaction Biology (HotSpot contract assay)
T4 sequence (P10721 26-976 D820E): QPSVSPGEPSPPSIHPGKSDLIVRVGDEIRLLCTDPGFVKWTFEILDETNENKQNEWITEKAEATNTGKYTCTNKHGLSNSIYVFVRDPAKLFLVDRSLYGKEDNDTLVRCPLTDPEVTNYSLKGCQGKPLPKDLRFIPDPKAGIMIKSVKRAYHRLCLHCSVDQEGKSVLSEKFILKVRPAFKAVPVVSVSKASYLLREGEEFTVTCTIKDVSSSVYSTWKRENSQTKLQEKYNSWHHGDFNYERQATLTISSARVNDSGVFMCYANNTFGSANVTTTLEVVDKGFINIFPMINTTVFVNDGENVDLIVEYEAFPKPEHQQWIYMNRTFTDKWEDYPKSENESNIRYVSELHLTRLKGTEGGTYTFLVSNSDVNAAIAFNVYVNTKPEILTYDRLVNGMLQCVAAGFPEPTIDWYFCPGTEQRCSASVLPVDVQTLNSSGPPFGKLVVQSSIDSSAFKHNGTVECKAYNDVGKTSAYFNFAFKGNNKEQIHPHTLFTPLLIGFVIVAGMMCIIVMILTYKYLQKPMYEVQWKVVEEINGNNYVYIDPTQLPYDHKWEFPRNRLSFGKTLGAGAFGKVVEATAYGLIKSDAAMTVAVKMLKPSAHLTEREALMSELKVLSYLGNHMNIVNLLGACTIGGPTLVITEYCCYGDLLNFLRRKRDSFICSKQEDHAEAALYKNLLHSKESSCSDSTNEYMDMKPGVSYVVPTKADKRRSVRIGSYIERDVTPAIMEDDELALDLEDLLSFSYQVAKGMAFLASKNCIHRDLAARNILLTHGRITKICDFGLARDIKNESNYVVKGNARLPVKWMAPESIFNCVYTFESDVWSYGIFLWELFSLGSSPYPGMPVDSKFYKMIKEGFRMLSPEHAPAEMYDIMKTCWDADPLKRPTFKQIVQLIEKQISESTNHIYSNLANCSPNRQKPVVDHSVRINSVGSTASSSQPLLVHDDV

[5] = target: T5, 382 unique human kinases (Homo sapiens, UniProt Q00534); settings: kinase CDK6/cyclin D1; compound 10 uM; read-out: % Enzyme Activity (relative to DMSO controls)
T5 construct: purchased Reaction Biology (HotSpot contract assay)
T5 sequence (Q00534 whole entry): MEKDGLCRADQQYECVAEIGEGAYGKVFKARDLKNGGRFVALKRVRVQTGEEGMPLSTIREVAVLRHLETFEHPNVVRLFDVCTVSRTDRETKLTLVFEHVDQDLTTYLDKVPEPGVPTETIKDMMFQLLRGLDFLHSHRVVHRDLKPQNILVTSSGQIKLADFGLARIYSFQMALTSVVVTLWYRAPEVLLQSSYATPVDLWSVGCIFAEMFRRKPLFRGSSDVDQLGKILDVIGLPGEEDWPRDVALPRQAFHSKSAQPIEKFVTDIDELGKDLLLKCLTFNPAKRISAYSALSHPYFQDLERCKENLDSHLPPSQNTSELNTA

[6] = target: T6, 382 unique human kinases (Homo sapiens, UniProt Q9H422); settings: HIPK3; compound at 10 uM; duplicate values; read-out: % Enzyme Activity (relative to DMSO controls)
T6 construct: purchased Reaction Biology (HotSpot contract assay)
T6 sequence (Q9H422 whole entry): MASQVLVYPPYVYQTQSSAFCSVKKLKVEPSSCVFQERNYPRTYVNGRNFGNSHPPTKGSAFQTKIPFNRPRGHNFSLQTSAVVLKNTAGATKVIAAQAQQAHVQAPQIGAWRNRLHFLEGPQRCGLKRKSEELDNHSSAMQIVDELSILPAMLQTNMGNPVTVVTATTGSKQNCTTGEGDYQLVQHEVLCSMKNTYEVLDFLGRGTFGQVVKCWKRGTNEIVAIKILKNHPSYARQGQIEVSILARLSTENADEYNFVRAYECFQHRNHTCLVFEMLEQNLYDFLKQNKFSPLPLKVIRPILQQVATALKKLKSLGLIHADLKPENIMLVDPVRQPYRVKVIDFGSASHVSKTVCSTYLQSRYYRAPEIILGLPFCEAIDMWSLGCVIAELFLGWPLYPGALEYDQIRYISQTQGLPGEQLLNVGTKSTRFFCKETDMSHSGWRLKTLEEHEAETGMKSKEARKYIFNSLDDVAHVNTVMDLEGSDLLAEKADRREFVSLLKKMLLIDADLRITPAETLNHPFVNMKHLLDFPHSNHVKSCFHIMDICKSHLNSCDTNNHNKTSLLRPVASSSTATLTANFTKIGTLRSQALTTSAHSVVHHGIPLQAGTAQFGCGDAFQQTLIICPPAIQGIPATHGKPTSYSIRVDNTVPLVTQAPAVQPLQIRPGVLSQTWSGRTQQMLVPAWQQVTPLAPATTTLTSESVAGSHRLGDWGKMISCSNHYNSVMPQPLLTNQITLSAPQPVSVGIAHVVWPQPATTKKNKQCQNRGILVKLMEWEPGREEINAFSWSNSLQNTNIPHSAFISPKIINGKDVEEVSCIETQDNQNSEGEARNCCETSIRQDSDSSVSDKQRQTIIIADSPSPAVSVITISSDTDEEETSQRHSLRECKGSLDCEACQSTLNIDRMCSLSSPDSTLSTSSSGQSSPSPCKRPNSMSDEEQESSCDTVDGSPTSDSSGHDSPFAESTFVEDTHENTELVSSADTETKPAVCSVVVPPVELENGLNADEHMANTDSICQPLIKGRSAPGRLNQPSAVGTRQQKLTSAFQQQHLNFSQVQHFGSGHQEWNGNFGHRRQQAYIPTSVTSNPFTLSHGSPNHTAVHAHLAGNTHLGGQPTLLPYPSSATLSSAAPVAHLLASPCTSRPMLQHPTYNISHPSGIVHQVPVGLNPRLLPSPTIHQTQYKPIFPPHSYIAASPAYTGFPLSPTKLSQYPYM

[7] = target: T7, 382 unique human kinases (Homo sapiens, UniProt P22607, K650M); settings: FGFR3 (K650M); 10 uM; read-out: % Enzyme Activity (relative to DMSO controls)
T7 construct: purchased Reaction Biology (HotSpot contract assay)

[8] = target: T8, 382 unique human kinases (Homo sapiens, UniProt P24941); settings: read-out: % Enzyme Activity (relative to DMSO controls)
T8 construct: purchased Reaction Biology (HotSpot contract assay)

[9] = target: T9, 382 unique human kinases (Homo sapiens, UniProt P11802); settings: CDK4/cyclin D1; 10 uM; read-out: % Enzyme Activity (relative to DMSO controls)
T9 construct: purchased Reaction Biology (HotSpot contract assay)
T9 sequence (P11802 whole entry): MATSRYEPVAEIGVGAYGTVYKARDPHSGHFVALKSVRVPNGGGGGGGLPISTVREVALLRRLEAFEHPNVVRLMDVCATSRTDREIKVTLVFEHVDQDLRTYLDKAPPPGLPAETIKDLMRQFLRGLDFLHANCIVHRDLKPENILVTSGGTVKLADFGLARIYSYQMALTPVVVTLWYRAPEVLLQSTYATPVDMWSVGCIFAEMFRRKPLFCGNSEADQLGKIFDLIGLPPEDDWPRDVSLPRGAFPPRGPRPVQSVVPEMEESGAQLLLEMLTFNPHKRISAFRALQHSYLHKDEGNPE

[10] = target: T10, 382 unique human kinases (Homo sapiens, UniProt P21802, K659N); settings: FGFR2 (K659N); 10 uM; read-out: % Enzyme Activity (relative to DMSO controls)
T10 construct: purchased Reaction Biology (HotSpot contract assay)
T10 sequence (P21802 22-821 K659N): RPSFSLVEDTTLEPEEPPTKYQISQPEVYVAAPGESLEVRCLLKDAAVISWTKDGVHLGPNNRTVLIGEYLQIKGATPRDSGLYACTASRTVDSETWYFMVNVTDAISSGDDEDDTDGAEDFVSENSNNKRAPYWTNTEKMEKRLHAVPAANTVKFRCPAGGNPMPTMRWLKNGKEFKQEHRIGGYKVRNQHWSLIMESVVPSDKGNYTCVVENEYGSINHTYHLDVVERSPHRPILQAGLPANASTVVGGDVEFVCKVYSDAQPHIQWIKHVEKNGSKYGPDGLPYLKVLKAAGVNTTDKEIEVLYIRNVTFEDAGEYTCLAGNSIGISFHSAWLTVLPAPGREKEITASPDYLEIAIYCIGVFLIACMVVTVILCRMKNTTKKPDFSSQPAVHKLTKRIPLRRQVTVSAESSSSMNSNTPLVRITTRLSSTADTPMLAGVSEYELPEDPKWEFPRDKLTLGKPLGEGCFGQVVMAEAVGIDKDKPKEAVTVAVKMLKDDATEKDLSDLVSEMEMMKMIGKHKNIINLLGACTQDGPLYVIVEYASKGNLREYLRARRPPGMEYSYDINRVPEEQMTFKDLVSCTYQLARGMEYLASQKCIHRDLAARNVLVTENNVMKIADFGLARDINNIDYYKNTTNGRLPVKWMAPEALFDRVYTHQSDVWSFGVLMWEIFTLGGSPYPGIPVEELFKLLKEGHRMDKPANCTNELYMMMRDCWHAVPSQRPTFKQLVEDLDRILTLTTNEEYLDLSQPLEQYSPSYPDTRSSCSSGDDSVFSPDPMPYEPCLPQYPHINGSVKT

[11] = target: T11, 382 unique human kinases (Homo sapiens, UniProt Q04771, R206H); settings: ALK2 (R206H); compound at 10 uM; duplicate values; read-out: % Enzyme Activity (relative to DMSO controls)
T11 construct: purchased Reaction Biology (HotSpot contract assay)
T11 sequence (Q04771 21-509 R206H): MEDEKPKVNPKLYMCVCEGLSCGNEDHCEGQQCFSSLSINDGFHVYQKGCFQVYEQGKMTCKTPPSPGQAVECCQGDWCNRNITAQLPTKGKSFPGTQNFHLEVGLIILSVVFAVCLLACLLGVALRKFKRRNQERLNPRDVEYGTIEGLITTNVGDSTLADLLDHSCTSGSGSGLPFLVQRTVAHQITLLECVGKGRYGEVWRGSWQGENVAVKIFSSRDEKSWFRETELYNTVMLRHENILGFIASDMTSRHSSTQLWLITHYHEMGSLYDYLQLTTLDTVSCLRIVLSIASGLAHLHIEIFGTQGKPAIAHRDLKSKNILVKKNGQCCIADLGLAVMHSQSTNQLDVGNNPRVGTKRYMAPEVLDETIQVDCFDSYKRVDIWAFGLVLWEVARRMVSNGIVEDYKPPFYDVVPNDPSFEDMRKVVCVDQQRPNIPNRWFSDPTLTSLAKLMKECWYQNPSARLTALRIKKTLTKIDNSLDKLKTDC

## CC(C)c1cc(-c2n[nH]c(=O)n2-c2ccc3c(ccn3C)c2)c(O)cc1O [Ganetespib (STA9090)]
[1]
  remaining activity at 10 µM: 90%
[2]
  remaining activity at 10 µM: 62.6%
[3]; CDK9/cyclin T2, 10 uM
  remaining activity at 10 µM: 69.9%
[3]; kinase CDK9/cyclin K, compound 10 uM
  remaining activity at 10 µM: 87%
[4]
  remaining activity at 10 µM: 72.5%
[5]
  remaining activity at 10 µM: 85%
[6]
  remaining activity at 10 µM: 111%
[7]
  remaining activity at 10 µM: 86.5%
[8]; CDK2/cyclin A, 10 uM
  remaining activity at 10 µM: 74.3%
[8]; kinase CDK2/cyclin O, compound 10 uM
  remaining activity at 10 µM: 92.8%
[9]
  remaining activity at 10 µM: 65.6%
[10]
  remaining activity at 10 µM: 70.6%
[11]
  remaining activity at 10 µM: 142%
